Measurements from publication PMC4482662, “Engineered Trehalose Permeable to Mammalian Cells” (PLoS ONE, 2015).
Blank lines part the entries; values can stand above or below the compound they belong to.

Legend:
[1] = system: rat hepatocytes; test: Uptake and intracellular deacetylation of acetylated trehalose in cultured rat hepatocytes (trehalase assay kit, total after NaOH hydrolysis); format: in vitro ADME; conditions: 30 mM incubation
Excerpt: Rat hepatocytes were provided by the Cell Resource Center (CRC) at the Center for Engineering in Medicine at Massachusetts General Hospital. Briefly, hepatocytes were obtained from female Lewis rats using a two-step collagenase protocol. Two or three month old rat (Charles River Laboratories, Wilmington, MA) weighing 180–200 g were used as hepatocyte source and were maintained in accordance with National Research Council guidelines. Experimental protocols in practice at CRC for the use of hepatocytes in this study were approved by the subcommittee on Research Animal Care, Massachusetts General Hospital. Using a modification of the two-step collagenase perfusion method, which involved purification of cell suspension by means of centrifugation over Percoll, approximately 200 million hepatocytes per rat liver with 85–95% viability were routinely obtained, as evaluated by Trypan blue exclusion. Hepatocytes were kept on ice and were plated within 1 h of isolation.
For trehalose loading experiments, 6-well plates were treated with 25μg/mL fibronectin for 1 h prior to plating the hepatocytes, at which point the wells were washed with PBS and the hepatocytes were seeded at 1.2–1.3×10^6 cells/well. The cells were allowed 24–48 h to attach and spread in a 10% (v/v) CO2 incubator at 37°C before they were incubated with acetylated variants of trehalose. […]
The cell lysates were analyzed for protein content using a Bradford Commassie assay for cell count approximation. Trehalose content of cell lysates were measured using a trehalose assay kit following the manufacturer’s protocol. […] This solution was analyzed for total trehalose content against the trehalose controls prepared in a similar fashion, and the concentration was adjusted for the dilution due to addition of NaOH and HCl. To estimate the number of cells, protein content of the cell lysate was assessed using the Pierce^TM Coomassie Plus (Bradford) assay (Life Technologies, Grand Island, NY, USA). […]

[2] = Diffusion-reaction model fitted to the uptake data (membrane permeability and esterase kinetics); format: in vitro ADME, rat; conditions: female, Lewis, rat, not told, pH 7.1, read-out: P, membrane permeability
Excerpt: (§1) We assume a lumped passive diffusion model for (n)-O-Ac-Tre across the cell membrane, the rate of change in the intracellular concentration of variants of (n)-O-Ac-Tre, C n, may be expressed using Fick’s first law: d[Cn]/dt=−PnA/V([Cn*]−[Cn]), (1) where P n is the membrane permeability of (n)-O-Ac-Tre. Parameters A and V are cell surface area available for transport and cell volume, respectively. Cn* is the extracellular concentration of (n)-O-Ac-Tre, which is equal to zero for all n<6. For the intracellular de-acetylation of (n)-O-Ac-Tre to (n-1)-O-Ac-Tre by esterase activity, we assume enzymatic reaction kinetics as the following: (n)-O-Ac-Tre+E→knf←knr[(n)-O-Ac-Tre+E]→kncat(n-1)-O-Ac-Tre+E where knf,knr and kncat are the kinetic reaction constants for (n)-O-Ac-Tre variants ranging from 6 to 0. We may assume that the process of de-acetylation of 6-O-Ac-Tre is a series of parallel first order enzymatic reactions competing for enzyme molecules (Fig 2).
(§2) Based on the proposed reaction model, the rate of change in the concentration of (n)-O-Ac-Tre ([C n]) and the intermediate ([C n E]) can be expressed as: d[Cn]/dt=−knf[Cn][En]+knr[CnE]+kn+1cat[Cn+1E]−PnA/V([Cn]−[Cn*]) (2) d[CnE]/dt=knf[Cn][En]−knr[CnE]−kncat[CnE] (3)
(§3) In the above set of equations, [E n] is the fraction of the free enzyme that would interact with [C n]. Assuming quasi-steady-state condition, the left-hand-side of Eq (3) is zero. […] [CnE]=knf[Cn][En]/(knr+kncat) (4)
(§4) We may assume that the probablity of the free enzyme interaction with variants of 6-O-Ac-Tre is directly proportional to respective mole fractions, x n: [En]=[E][Cn]/∑n[Cn]=[E]xn (5) where [E] is the concentration of the free enzyme, which can also be expressed as [E] = [E 0]−∑[C n E]. By replacing Eq (5) in Eq (4), summation over n, and rearranging, we get: [E]=[E0]/1+∑([Cn][xn]/Knm) (6) where Knm=knr+kncat/knf is equivalent of the Michaelis-Menten constant for the enzymatic break-down of (n)-O-Ac-Tre variant. After substituting Eq (6) and Eq (4) in Eq (2) and rearranging, we can propose the rate of change in the concentration of (n)-O-Ac-Tre as the following: d[Cn]/dt=−Vnmax[Cn]xn/Knm(1+∑([Cn][xn]/Knm))+Vn+1max[Cn+1]xn+1/Kn+1m(1+∑([Cn][xn]/Knm))+PnA/V([Cn*]−[Cn]) (7) where Vnmax=kncat[E0] . For trehalose and 6-O-Ac-Tre, the first and second terms on the rights hand side of […] are omitted, respectively. Eq (7) is the general form of the Michaelis-Menten formulation of a multi-step enzymatic reaction for this specific case.
(§5) The permeability coefficient P n, and the coefficients Vnmax and K n in the above list of equations are unknown since no data is available in the literature on these novel molecules to be used in the model. Therefore, the values of these parameters were obtained by fitting the model to the data using a custom-written code in MATLAB (The MathWorks, Natick, MA, USA).
(§6) The proposed diffusion-reaction model in the Methods section allows calculating the permeability coefficients for 6-O-Ac-Tre by fitting the model to the experimental results for 6-O-Ac-Tre. First, we made a few simplifying assumptions. […] We also assumed that the enzymatic kinetics of the de-acetylation process were similar for all the steps of hydrolysis of (n)-O-Ac-Tre to (n-1)-O-Ac-Tre. Therefore, Knm=K^m and Vnmax=V^max for n≤6.
(§7) The model was fit to 3 separate data sets obtained from incubation of cells with 5, 15 and 30 mM 6-O-Ac-Tre, each obtained consisting out of total trehalose and total (n)-O-Ac-Tre variants concentration data (Fig 4, also see S1 Fig). The model was fit to the data up to 9 h incubation. The results are plotted in Fig 4. Using only 3 fitting parameters, the model fit all the 6 data sets very closely with nonlinear regression coefficient R^2 values >0.92. By increasing the incubation concentration from 5 to 30 mM, the value of permeability increased from 2.2×10^−9 to 8.0×10^−9 m s^-1 resulting in an average of 5.0±3.4×10^−9 m s^-1.

[3] = system: rat hepatocytes; test: as above; format: in vitro ADME
Excerpt: as §1, §2, §3, §4, §5, §6, §7

[4] = system: rat hepatocytes; test: MTT cell viability assay after loading; format: cell-based; conditions: 48 h after loading with 30 mM
Description: To evaluate cell viability after incubation with acetylated trehalose compared to control group, […] 0.5 mg/ml. The cells were incubated with the MTT reagent for 2 hrs. At the end of incubation, the MTT reagent was removed and the cells were incubated with DMSO for 10 min to dissolve all crystallized formazan. Then, the concentration of formazan was assayed by reading the absorption values of the DMSO solution in a spectrophotometric plate reader at 560 nm.

[5] = system: rat hepatocytes; test: Hepatocyte albumin secretion ELISA, 14-day follow-up after loading; format: cell-based; parameters: dose or concentration left out as unconfirmed
Description: The hepatocytes were seeded at 0.6×10^6 cell/well on the collagen gel in 12-well plates. Collagen gel was formed by the addition of 200 μL of collagen solution to each well and incubation for 20 min at 37°C. The cells were allowed to attach and spread at least 24 h before the experiments. […] After the collagen solution solidified, 0.5 mL of medium was added per well and the plate was incubated at 10% CO2 and 37°C. Every 24 h for 14 days, the medium from each well was separately collected and 0.5 mL fresh medium was added to each well. The collected samples were stored at -80°C freezer until analyzed.
Albumin secretion was assayed following an ELISA protocol developed in-house. Briefly, 96-well high-binding ELISA plates were coated with 5 μg/well rat albumin in 100 μL PBS and incubated overnight at 4 °C. Coated plates were washed with PBS-Tween (0.05%) at least 3 times and 50 μL of the media or standards were added to wells in the plate. Albumin antibody was diluted 1:10000 in PBS-tween and 50 μL was added to each well and incubated overnight at 4 °C. At the end of incubation, the plates were washed with PBS-0.05% Tween at least 3 times. A substrate solution of o-phenylenediamine dihydro-chloride (OPD, 400 μg/mL) and 4 μM H2O2 was prepared in a citric acid buffer. […] Reaction was stopped by addition of 50 μL 8N sulfuric acid and the difference in absorbance was measured at 490 nm.

[6] = system: rat hepatocytes; test: Mitochondrial membrane potential (JC-1, Mito-Tracker Red) after loading; format: cell-based; conditions: after 6 h incubation
Description: To determine mitochondrial function after incubation with acetylated trehalose, we used JC-1 for membrane potential and Mito-Tracker Red CMRox for imaging following the manufacturers’ protocols. The hepatocytes were seeded in fibronectin-coated plates and were allowed to attach and spread for 24–48 h. Then, the cells were incubated with 30 mM 6-O-Ac-Tre and 25 mM HEPES for 6 h, after which the wells were washed with excess medium and the cells incubated for 24 h before the assay. Immediately upon the start of incubation with staining agents, the plates were placed in the fluorescent plate reader and the fluorescence was read for 30 min at 579/599 nm excitation/emission wavelengths for Mito-Tracker and at 485 nm excitation and 530/590 nm emission wavelengths for the green and red channels respectively of JC-1. For imaging mitochondria, the hepatocytes were cultured on collagen-coated glass cover slips for 48 h, and were stained with Mito-Tracker Red 24 h after the incubation with 6-O-Ac-Tre for 6 h. The control group was prepared without incubation with 6-O-Ac-Tre. The cover slips were then washed with excess PBS and imaged using a Zeiss microscope with fluorescence capability.

[7] = system: rat hepatocytes; test: Overall morphology of hepatocytes after loading; format: cell-based; conditions: post-loading incubation after 15 and 30 mM for 6 h
Description: We next examined the long-term functional activity of hepatocytes after incubation with 6-O-Ac-Tre. The cells were incubated for 14 days following the incubation with 15 and 30 mM 6-O-Ac-Tre for 6 h (Fig 5). During the post-loading incubation, the cells were examined for overall morphology, viability and the albumin secretion. Mitochondrial membrane potential (ΔΨ) was also examined.

[8] = Water solubility; format: physicochemical

uptake compared with trehalose, 2-Act-Tre and 4-Act-Tre [1]: at least one order of magnitude higher | Papp at 9 h ([2]; Average±S.D. over 5, 15, 30 mM): 0.5 ×10⁻⁶ cm/s | Papp at 9 h, 5 mM ([2]; C* 5 mM, fit up to 9 h): 0.22 ×10⁻⁶ cm/s | Papp at 9 h, 15 mM ([2]; C* 15 mM, fit up to 9 h): 0.39 ×10⁻⁶ cm/s | Papp at 9 h, 30 mM ([2]; C* 30 mM, fit up to 9 h): 0.8 ×10⁻⁶ cm/s | K^m of intracellular esterase deacetylation ([3]; Average±S.D. over 5, 15, 30 mM): 0.097 ± 0.006 mM | V^max of intracellular esterase deacetylation ([3]; Average±S.D. over 5, 15, 30 mM): 0.0167 ± 0.01 mM/s | K^m of intracellular esterase deacetylation ([3]; C* 5 mM): 0.09 mM | V^max of intracellular esterase deacetylation ([3]; C* 5 mM): 0.007 mM/s | K^m of intracellular esterase deacetylation ([3]; C* 15 mM): 0.1 mM | V^max of intracellular esterase deacetylation ([3]; C* 15 mM): 0.016 mM/s | K^m of intracellular esterase deacetylation ([3]; C* 30 mM): 0.1 mM | V^max of intracellular esterase deacetylation ([3]; C* 30 mM): 0.027 mM/s | K m ([3]; constant from 5 to 30 mM incubation): ~ 0.1 mM | average conversion rate by esterases ([3]; hydrolysis of acetylated trehalose): 60 ± 36 mM/h | mitochondrial ΔΨ versus control (Mito-Tracker Red, JC-1 ratio) [6]: no significant difference | overall morphology and lipid droplet formation versus control [7]: minimal changes
SMILES: CC(=O)OC1C(CO)OC(OC2OC(CO)C(OC(C)=O)C(OC(C)=O)C2OC(C)=O)C(OC(C)=O)C1OC(C)=O (stereo not shown) [6-O-Ac-Tre, trehalose hexaacetate]
MTT viability versus control [4]: no significant difference | albumin secretion versus control [5]: eventually increased to similar levels as the control group within 10 days

water solubility [8]: not water soluble
SMILES: CC(=O)OCC1OC(OC2OC(COC(C)=O)C(OC(C)=O)C(OC(C)=O)C2OC(C)=O)C(OC(C)=O)C(OC(C)=O)C1OC(C)=O (stereo not shown) [8-O-Ac-Tre]

SMILES: CC(=O)OC1C(OC2OC(CO)C(O)C(OC(C)=O)C2OC(C)=O)OC(CO)C(O)C1OC(C)=O (stereo not shown) [4-O-Ac-Tre, trehalose tetraacetate]
enhancement of membrane permeability over regular trehalose [1]: did not observe a significant enhancement of the permeability

SMILES: CC(=O)OCC1OC(OC2OC(COC(C)=O)C(O)C(O)C2O)C(O)C(O)C1O (stereo not shown) [trehalose diacetate]
enhancement of membrane permeability over regular trehalose [1]: did not observe a significant enhancement of the permeability
